Test results as given in US20210228685A1, “IMPROVED WEIGHT LOSS THERAPY” (BIOREG LLC, priority 2018, published 2021).

Assays:
ATGL = biological target: T1, ATGL (Mus musculus, UniProt Q8BJ56); assay: Atglistatin inhibition of rLIF- or isoproterenol-induced adipocyte lipolysis; type: cell-based; settings: 1 ng/ml rLIF, increasing concentrations of Atglistatin
T1 construct: endogenous in cells; host or cells: differentiated SVF adipocytes
T1 sequence (Q8BJ56 1-486): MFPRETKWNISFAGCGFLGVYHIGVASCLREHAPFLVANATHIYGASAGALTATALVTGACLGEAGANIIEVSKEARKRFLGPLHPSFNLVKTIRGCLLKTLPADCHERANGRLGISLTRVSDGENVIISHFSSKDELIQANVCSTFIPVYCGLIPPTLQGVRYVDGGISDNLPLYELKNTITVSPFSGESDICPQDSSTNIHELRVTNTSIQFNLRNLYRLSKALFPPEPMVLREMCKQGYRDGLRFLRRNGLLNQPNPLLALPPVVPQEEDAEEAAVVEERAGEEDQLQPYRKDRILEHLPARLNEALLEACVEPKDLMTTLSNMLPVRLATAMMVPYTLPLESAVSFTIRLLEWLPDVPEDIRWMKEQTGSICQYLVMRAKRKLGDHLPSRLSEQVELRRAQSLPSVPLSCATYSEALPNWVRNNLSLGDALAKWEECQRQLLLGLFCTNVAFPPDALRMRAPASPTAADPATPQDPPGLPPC
Protocol: Using the tissue culture adipocyte lipolysis assay, we tested both purified recombinant versions of LIF for their ability to stimulate lipolysis. FIG. 1B-D show adipocyte lipolysis and signaling in wild-type and mutant rLIF-treated adipocytes. Differentiated adipocytes in a 12-well format were treated in a final volume of 1.5 ml of medium supplemented with either the indicated concentration of rLIF or rLIF K159A (FIG. 1B-C); or 30 nM Isoprotererenol or 1 ng/ml rLIF in the absence or presence of the indicated concentration of Atglistatin (FIG. 1D). After incubation for 20 h at 37° C., medium was collected and glycerol concentration was measured using the adipocyte lipolysis assay (FIGS. 1B and D) or adipocyte cells were harvested and subjected to IB analysis (FIG. 1C) ([…]) with the indicated antibody. Each data point (FIG. 1B) represents the mean±SEM of the relative change in medium glycerol concentration compared to conditions containing rLIF without Atglistatin (red, 26 μM) or isoproterenol without Atglistatin (black, 83 μM). As shown in (FIG. 1B), in vitro adipocyte lipolysis activity with WT rLIF was increased over background by ˜5-fold compared with mutant rLIF K159A.
In adipocytes, triglycerides are sequentially hydrolyzed by ATGL, HSL, and monoacylglycerol lipase (MGL). […]

[1] = tested on: differentiated SVF adipocytes; assay: adipocyte lipolysis assay (glycerol released into the medium); type: cell-based; settings: 12-well format, 20 h at 37° C., without Atglistatin; 1 ng/ml rLIF or 30 nM isoproterenol
Protocol: Conditioned medium from the C26c20 and MC-38 cells was subsequently placed on differentiated adipocytes, and the amount of glycerol released into the medium was quantified. Glycerol release into the medium is a marker for triglyceride lipolysis in adipocytes (27).
SVF preadipocytes were differentiated into adipocytes as follows: On day −3, SVF preadipocytes were set up in 1 ml medium B at a density of 1×10^6 cells/well of 12-well plates or 3.3×10^5 cells/well of 48-well plates. […] After 2 minutes, the amount of absorbance per well was measured using a Tecan microplate reader (absorbance 540 nm). The amount of glycerol concentration released into the medium per condition over background was calculated using the measured absorbance relative to the absorbance of the standardized curve.
To identify the proteins that mediated lipolysis in C26c20 conditioned medium, we carried out a biochemical purification using the lipolysis assay described above using SVF preadipocytes differentiated into adipocytes set up in 12-well plates or 48-well plates. […] After 2 minutes, the amount of absorbance per well was measured using a Tecan microplate reader (absorbance 540 nm). The amount of glycerol concentration released into the medium per condition over background was calculated using the measured absorbance relative to the absorbance of the standardized curve. […]

inhibition of rLIF-induced lipolysis (ATGL)	SMILES	medium glycerol concentration [1] [µM]
inhibited	CN(C)C(=O)Nc1cccc(-c2ccc(N(C)C)cc2)c1 [Atglistatin]	–
–	CC(C)NCC(O)c1ccc(O)c(O)c1 (centres unmarked) [isoproterenol]	83
